According to article PMC5561046, “Cytochrome P450/ABC transporter inhibition simultaneously enhances ivermectin pharmacokinetics in the mammal host and pharmacodynamics in Anopheles gambiae” (Scientific Reports, 2017):
Values joined by “and” are separate entries in the source; they are usually repeats but may differ in a detail not shown here. Equal entries are not always repeated. “Also recorded” adds a separate entry of the source.

Experiments:
[1] = Drug-drug interaction study: ivermectin plasma pharmacokinetics in mini-pigs; settings: for AUC inf, Median (Range) / Cmax, Median (Range) / AUC > LD50, Median (Range) / Time > LD50, Median (Range): group median (range); for AUC inf, Median (Range) / Cmax, Median (Range): plasma ivermectin, single oral 800 mcg/kg; for AUC inf, Median (Range) / Cmax, Median (Range) / AUC > LD50, Median (Range) / Time > LD50, Median (Range) / Time > LD50: treatment group as in the label; for AUC > LD50, Median (Range): area under the plasma ivermectin curve above 6 ng/ml; for AUC > LD50, Median (Range) / Time > LD50, Median (Range) / Time > LD50: oral 800 mcg/kg; for Time > LD50, Median (Range): time plasma ivermectin is above 6 ng/ml; for Time > LD50: individual mini-pig, time plasma ivermectin is above 6 ng/ml (10-day LC50 for Anopheles gambiae)
Description: (§1) The experiments were conducted following a randomised crossover design (Fig. 1). In phase I all mini-pigs received a single 800 mcg/kg dose of oral ivermectin and sampling was done as described below. […] The total wash-out period between ivermectin doses was 30 days. […] Inhibiting the P-gp could theoretically lead to toxicity due to abnormal accumulation of the drug in the brain[30], [31]. […] Irrespectively of this, drug quantification in cerebrospinal fluid (CSF) was added as an additional safety point. Rifampicin a CYP/P-gp inducer[49] was included as we expected to see reduced bioavailability and penetration into CSF.
The pre-medication drugs were administered by crushing the tablets and mixing them with canned meat products used for enrichment. For ivermectin administration and sampling during the first 8 hours, the animals were sedated with a single intramuscular dose of tiletamine-zolazepan (4 mg/kg) and maintained with inhalatory isoflurane (1.5–2%). In pigs, there is no evidence of a significant interaction (other than being a substrate) of these drug classes with the CYP3A4 or the P-gp[80]. Ivermectin was administered via nasogastric tube.
For blood sampling during the first eight hours, a femoral line was left in place and later removed during recovery from anaesthesia. Blood sampling thereafter was done by jugular puncture under restrain. […] For the mosquito bioassay, additional serum samples were obtained at every time point, and frozen at −20 °C.
Blood samples were drawn in 3 ml EDTA tubes and centrifuged. Plasma was separated and frozen at −20 °C until analysis. CSF samples were frozen at −20 °C.
(§2) Ivermectin levels in plasma and CSF were determined using a validated adaptation of a previously described HPLC-FLD[82]. The detection limit in plasma and CSF was 0.1 ng/ml, the quantification limit was 0.5 ng/ml.
Pharmacokinetic analyses were performed using Phoenix WinNonlin 6.4 (Certara, Princeton, NJ, USA). Pharmacokinetic parameters were derived from non-compartmental analyses.
The comparison of PK parameters between ivermectin groups was done by means of a two-sided Mann-Whitney test.

[2] = minipig, in vivo
Description: as §1
For obtaining CSF samples during the first 8 hours, an intrathecal catheter was placed by means of fluoroscopy-guided lateral lumbar puncture[81] (Fig. 5). Given the challenges posed by the particular anatomy of the pig, efforts were done to tunnel the intrathecal catheter and connect it to a subcutaneous reservoir in order to avoid repeating the technically demanding lumbar puncture during phase II of the study (Fig. 5). […] Sampling points for CSF were: pre-treatment and at 0.5, 1, 2, 3, 4, 5, 6, 7 and 8 hours. […]
as §2

[3] = Clinical observation of mini-pigs for adverse events / ivermectin toxicity signs; format: in vivo, mini-pig; settings: oral ivermectin 800 mcg/kg with or without ketoconazole or rifampicin pre-treatment
Description: Six hybrid mini-pigs (2 male, 4 female) weighing between 46 and 70 kg were procured from our accredited breeding centre at the University of Navarra. They were housed individually throughout the study at the animal research facilities in the University of Navarra. From arrival onward, the animals were assessed daily for general wellbeing and after the intervention, also for specific ivermectin toxicity signs.

[4] = test system: Anopheles gambiae; assay: Synergistic mosquito bioassay: membrane feeding with mini-pig serum samples, mortality follow-up; format: in vivo, Anopheles gambiae s.s.; settings: for Mean survival / Time to median mortality: Anopheles gambiae, membrane feeding
Description: Mosquitoes were membrane fed with reconstituted blood as described by Bousema et al.[51].
Since mosquitoes grouped in cups for feeding, we used a cluster design in which the unit of intervention was mosquito cups. Our primary outcome was mean 10-day mosquito mortality after membrane feeding. Sample size calculations were conducted according to the method described by Gangnon and Kosorok[52]. The minimum expected 10-day mortality in mosquitoes imbibing blood containing 9.9 ng/ml of ivermectin is 66%; this is based on the predictive function described by Ouedraogo et al.[50]. Based on previous observations and with all mosquitoes having the same colony origin and age range, we chose a conservative intracluster correlation of 0.15. The frailty variance of clusters was resembled by a gamma of 1. All experiments were performed in triplicate. With these parameters, at least 4 clusters of 44 mosquitoes were needed per arm to achieve 80% power at 5% significance level accounting for 10% non-feeders.
Baseline serum samples collected before ivermectin treatment in ketoconazole and naïve pigs were used as controls. These samples were shipped frozen to the insectary facilities of the Ifakara Health Institute in Bagamoyo, Tanzania for membrane feeding assays. It was hypothesised that induction of the mosquito CYP/P-gp by rifampicin could improve survival in presence of ivermectin, but this could not be tested due to a reduced absorption of ivermectin in the mini-pigs pre-treated with rifampicin (see below).
For all experiments, we used the fully susceptible Anopheles gambiae s.s. colony maintained at the insectary in Bagamoyo. Mosquitoes were reared at 28 °C, 80% humidity and with a photoperiod of 12:12. Larvae were kept in large plastic bowls covered with netting containing approximately 2 litres of water with larval densities not exceeding one 4th instar larvae per ml. Larvae were fed Tetramine fish flakes ad libitum. Once they developed into pupae these were collected using disposable plastic Pasteur pipettes and transferred to small bowls containing approximately 200 ml of clean water. The pupae bowls were then placed inside fully screened cages (30 × 30 × 30 cm) where adult mosquitoes were allowed to emerge and given 10% glucose as a sugar source ad libitum.
Only mosquitoes of 2–5 days of age were used for the experiments. Before the experiments, mosquitoes were starved from sugar for 12–18 hours and from water for one hour. Hungry females were selected by applying a bottle with heated water (37–40 °C) to the cage. 40–50 hungry females were transferred to each paper cup using a mouth aspirator.
We performed membrane feeding assays with serum replacement as previously described. For each experiment, the selected pig sample was thawed and 1 ml of whole blood was centrifuged at 2100 rpm for 10 minutes. The serum volume was noted and replaced with the same amount of the sample pig-serum being tested. After this, tubes were inverted 10 times. Each sample was tested in triplicate.
In order to reduce potential confounding arising from variations in bloodmeal size, partially fed mosquitoes were discarded and only fully engorged females followed up for the mortality assessment. After each feeding experiment, the cups were placed on ice for 1–2 minutes to select and transfer fully engorged females.
Cups with fully engorged mosquitoes were kept at 24–26 °C and 65–70% relative humidity inside climate controlled incubators. Mosquitoes were maintained with 10% glucose solution using impregnated cotton. Mortality was recorded daily for 9 days by a person blinded to the allocation of the cups. Dead mosquitoes were removed from the cups daily.
Survival Kaplan-Meier analysis was performed in Addinsoft’s XLSTAT ® Version 2016.04.32229 (New York, NY, USA). Comparisons of survival patterns were done with Log-rank test using a 5% significance level adjusted for cluster design.

[5] = test system: Anopheles gambiae; parameters: method as in PMID 25414262; settings: cited from earlier work
[6] = cited from earlier work
[7] = test system: CYP 3A4; parameters: method as in PMID 19255936; settings: estimated; cited from earlier work
[8] = Pair 1: ivermectin 9.98 (IVM) vs 8.96 (KET) ng/ml in the fed sample
[9] = Pair 2: ivermectin 16.5 (IVM) vs 17.23 (KET) ng/ml in the fed sample
[10] = Pair 3: ivermectin 20.46 (IVM) vs 20.39 (KET) ng/ml in the fed sample
[11] = Pair 4: ivermectin 27.58 (IVM) vs […] (KET) ng/ml in the fed sample

CCC(C)C1OC2(CCC1C)CC1CC(CC=C(C)C(OC3CC(OC)C(OC4CC(OC)C(O)C(C)O4)C(C)O3)C(C)C=CC=C3COC4C(O)C(C)=CC(C(=O)O1)C34O)O2 (stereo not shown) [Ivermectin]
AUC inf, Median (Range) ([1]; listed as Ivermectin 1): 244 (1899) h·ng/mL
Cmax, Median (Range) ([1]; listed as Ivermectin 1): 8.7 (26.0) ng/mL
AUC inf, Median (Range) ([1]; listed as Ivermectin 2): 1205.3 (349) h·ng/mL
Cmax, Median (Range) ([1]; listed as Ivermectin 2): 18 (5.6) ng/mL
AUC inf, Median (Range) ([1]; listed as Ivermectin(combined)): 862.7 (1899) h·ng/mL
AUC > LD50, Median (Range) ([1]; listed as Ivermectin 1): 23.7 (509.4) h·g/mL
AUC > LD50, Median (Range) ([1]; listed as Ivermectin 2): 297.6 (142.6) h·g/mL
Time > LD50, Median (Range) ([1]; listed as Ivermectin 1): 4.6 (46.7) h
Time > LD50, Median (Range) ([1]; listed as Ivermectin 2): 49.9 (9.1) h
Time > LD50 ([1]; listed as Ivermectin 1): 9.3 h
Time > LD50 ([1]; listed as Ivermectin 2): 54.5 h and 45.4 h
Time > LD50 ([1]; listed as Ivermectin(combined)): 46.7 h and 27.2 h and 0.0 h
increase in ivermectin time above LC50 ([1]; ketoconazole pre-treatment vs ivermectin alone, mini-pigs): 3 fold
median Cmax ([1]; plasma ivermectin in mini-pigs, ivermectin alone (combined) vs ketoconazole pre-treatment, P = 0.033): 14 ng/mL
total AUC ([1]; plasma ivermectin in mini-pigs, ivermectin alone (combined) vs ketoconazole pre-treatment, P = 0.067, not significant): 862 ng·h/mL
ivermectin concentration in CSF [2]: < 0.5 ng/mL
number of CSF samples in which ivermectin was detectable [2]: 4
clinical adverse events [3]: No clinical adverse events were observed
Mean survival [4, 8]: 6.73 (6.29–7.17) days
Time to median mortality [4, 8]: 7 days
Mean survival [4, 9]: 5.11 (4.63–5.86) days
Time to median mortality [4, 9]: 5 days
Mean survival [4, 10]: 7.43 (7.11–7.75) days
Time to median mortality [4, 10]: 7 days
Mean survival [4, 11]: 5.28 (4.54–6.02) days
Time to median mortality [4, 11]: 5 days
10-day lethal concentration 50 (LC50) ([5]; kills 50% of Anopheles gambiae in 10 days): 6 ng/ml
minimum expected 10-day mortality ([5]; mosquitoes imbibing blood containing 9.9 ng/ml of ivermectin, from predictive function): 66%
time for which concentrations that kill 50% of Anopheles gambiae in 10 days are sustained ([6]; after the single dose of 200 mcg/kg commonly used for NTDs, no reference given): around 72 hours
half-life [6]: 18 h

CO[C@H]1/C=C/O[C@@]2(C)Oc3c(C)c(O)c4c(O)c(c(/C=N/N5CCN(C)CC5)c(O)c4c3C2=O)NC(=O)/C(C)=C\C=C\[C@H](C)[C@H](O)[C@@H](C)[C@@H](O)[C@@H](C)[C@H](OC(C)=O)[C@@H]1C [rifampicin, Rifampicin]
effect of pre-treatment on ivermectin absorption ([1]; rifampicin pre-treatment (CYP/P-gp induction), mini-pigs, oral ivermectin 800 mcg/kg): markedly impaired ivermectin absorption; also recorded: seriously hampered ivermectin absorption

CC(=O)N1CCN(c2ccc(OCC3COC(Cn4ccnc4)(c4ccc(Cl)cc4Cl)O3)cc2)CC1 (stereo not shown) [ketoconazole]
effect on mortality of Anopheles gambiae fed samples containing ivermectin ([4]; ketoconazole at CYP inhibition concentrations, matched ivermectin concentrations (+/−1 ng/ml), all four pairs): significantly increased the mortality
effect on 10-day mortality of Anopheles gambiae ([4]; ketoconazole-only baseline pig sample vs fully drug-free sample, Log-rank P = 0.048, n = 222): did not increase the mortality
